This passage reports melting point results from patent US20110130397A1, “PYRROLINONE COMPOUNDS AS INHIBITORS OF BACTERIAL PEPTIDYL TRNA HYDROLASE AND USES THEREOF” (priority 2006, published 2011).

Molecules are shown by their SMILES.

One may read the melting point as the temperature of the solid-liquid transition. As to `O=C(O)CCC(=O)C1=C(O)C(=O)N(c2nc3ccc(Cl)cc3s2)C1c1ccc(F)cc1` (stereo not shown) [Compound 569], the melting point fell in the range of 262 to 263 °C.
The molecule `O=C(C1=C(O)C(=O)N(c2nc3c(Cl)cccc3s2)C1c1ccc(F)cc1)C1CC2C=CC1C2` (stereo not shown) [Compound 570] came in with a melting point of 216 to 218 °C.
Next, `O=C(C1=C(O)C(=O)N(c2nc3ccc(Cl)cc3s2)C1c1ccccc1F)C1CCC1` (stereo not shown) [Compound 571]: 262 to 263 °C.
Next, `O=C(C1=C(O)C(=O)N(c2nc3ccc(Cl)cc3s2)C1c1ccc(F)cc1)C1CCC1` (stereo not shown) [Compound 572]: 271 to 273 °C; `O=C(C1=C(O)C(=O)N(c2nc3c(Cl)cccc3s2)C1c1ccccc1F)C1CCC1` (stereo not shown) [Compound 573]: 220 to 221 °C; `O=C(C1=C(O)C(=O)N(c2nc3c(Cl)cccc3s2)C1c1ccc(F)cc1)C1CCC1` (stereo not shown) [Compound 574]: 232 to 233 °C.
The molecule `COCCOc1ccc(CCC(=O)C2=C(O)C(=O)N(c3nc4ccc(Cl)cc4s3)C2c2ccccc2F)cc1` (stereo not shown) [Compound 575] showed a melting point of 219 to 220 °C.
`COCCOc1ccc(CCC(=O)C2=C(O)C(=O)N(c3nc4ccc(Cl)cc4s3)C2c2ccc(F)cc2)cc1` (stereo not shown) [Compound 576] registered a melting point of 226 to 227 °C.
Next, `COCCOc1ccc(CCC(=O)C2=C(O)C(=O)N(c3nc4c(Cl)cccc4s3)C2c2ccccc2F)cc1` (stereo not shown) [Compound 577]: 179 to 180 °C.
Next, `COCCOc1ccc(CCC(=O)C2=C(O)C(=O)N(c3nc4c(Cl)cccc4s3)C2c2ccc(F)cc2)cc1` (stereo not shown) [Compound 578]: 182 to 183 °C; `O=C(C1=C(O)C(=O)N(c2nc3ccc(Cl)cc3s2)C1c1ccccc1F)C1CC2C=CC1C2` (stereo not shown) [Compound 579]: 205 to 206 °C; `Cc1ccc(C(=O)C2=C(O)C(=O)N(CCc3c[nH]c4ccccc34)C2c2ccccc2F)o1` (stereo not shown) [Compound 593]: 197 to 198 °C.
Next, `Cc1ccc(C(=O)C2=C(O)C(=O)N(CCc3c[nH]c4ccccc34)C2c2ccc(F)cc2)o1` (stereo not shown) [Compound 594]: 157 to 158 °C; `Cc1ccc(C(=O)C2=C(O)C(=O)N(CCc3c[nH]c4ccccc34)C2c2ccc(Cl)cc2)o1` (stereo not shown) [Compound 595]: 165 to 166 °C; `Cc1ccc(C(=O)C2=C(O)C(=O)N(c3nc4ccc(Cl)cc4s3)C2c2ccc3c(c2)OCCO3)o1` (stereo not shown) [Compound 596]: 236 to 237 °C.
Molecule `Cc1ccc(C(=O)C2=C(O)C(=O)N(c3nc4ccc(F)cc4s3)C2c2ccc3c(c2)OCCO3)o1` (stereo not shown) [Compound 597] yielded a melting point of 236 to 237 °C.
`Cc1ccc(C(=O)C2=C(O)C(=O)N(c3nc4c(Cl)cccc4s3)C2c2ccc3c(c2)OCCO3)o1` (stereo not shown) [Compound 598] came in with a melting point of 251 to 252 °C.
In turn, `Cc1ccc(C(=O)C2=C(O)C(=O)N(c3nc4ccc(Cl)cc4s3)C2c2ccc3ccccc3c2)o1` (stereo not shown) [Compound 599] displayed a melting point of 255 to 257 °C.
As for `Cc1ccc(C(=O)C2=C(O)C(=O)N(c3nc4ccc(F)cc4s3)C2c2ccc3ccccc3c2)o1` (stereo not shown) [Compound 600], the figure is 254 to 256 °C; as for `Cc1ccc(C(=O)C2=C(O)C(=O)N(c3nc4c(Cl)cccc4s3)C2c2ccc3ccccc3c2)o1` (stereo not shown) [Compound 601], 261 to 262 °C; as for `COc1cccc(C2C(C(=O)c3ccc(C)o3)=C(O)C(=O)N2c2nc3ccc(Cl)cc3s2)c1` (stereo not shown) [Compound 602], 229 to 230 °C.
`COc1cccc(C2C(C(=O)c3ccc(C)o3)=C(O)C(=O)N2c2nc3ccc(F)cc3s2)c1` (stereo not shown) [Compound 603] displayed a melting point of 201 to 202 °C.
For `COc1cccc(C2C(C(=O)c3ccc(C)o3)=C(O)C(=O)N2c2nc3c(Cl)cccc3s2)c1` (stereo not shown) [Compound 604], the melting point lay in the range of 255 to 256 °C.
As for `COc1cc(C2C(C(=O)c3ccc(C)o3)=C(O)C(=O)N2c2nc3ccc(Cl)cc3s2)cc(OC)c1OC` (stereo not shown) [Compound 605], the figure is 229 to 230 °C.
Next, `COc1cc(C2C(C(=O)c3ccc(C)o3)=C(O)C(=O)N2c2nc3ccc(F)cc3s2)cc(OC)c1OC` (stereo not shown) [Compound 606]: 244 to 245 °C; `COc1cc(C2C(C(=O)c3ccc(C)o3)=C(O)C(=O)N2c2nc3c(Cl)cccc3s2)cc(OC)c1OC` (stereo not shown) [Compound 607]: 251 to 252 °C.
The molecule `Cc1ccc(C(=O)C2=C(O)C(=O)N(c3nc4ccc(Cl)cc4s3)C2c2ccc(C)o2)o1` (stereo not shown) [Compound 608] returned a melting point of 235 to 236 °C.
Next, `Cc1ccc(C(=O)C2=C(O)C(=O)N(c3nc4c(Cl)cccc4s3)C2c2ccc(C)o2)o1` (stereo not shown) [Compound 610]: 224 to 225 °C; `CCN(CC)c1ccc(C2C(C(=O)c3ccc(C)o3)=C(O)C(=O)N2c2nc3ccc(Cl)cc3s2)cc1` (stereo not shown) [Compound 614]: 207 to 210 °C.
As for `CCN(CC)c1ccc(C2C(C(=O)c3ccc(C)o3)=C(O)C(=O)N2c2nc3ccc(F)cc3s2)cc1` (stereo not shown) [Compound 615], the figure is 209 to 212 °C; as for `CCN(CC)c1ccc(C2C(C(=O)c3ccc(C)o3)=C(O)C(=O)N2c2nc3c(Cl)cccc3s2)cc1` (stereo not shown) [Compound 616], 223 to 226 °C; as for `Cc1ccc(C(=O)C2=C(O)C(=O)N(c3nc4ccc(Cl)cc4s3)C2c2cccc3ccccc23)o1` (stereo not shown) [Compound 617], 260 to 261 °C.
Next, `Cc1ccc(C(=O)C2=C(O)C(=O)N(c3nc4ccc(F)cc4s3)C2c2cccc3ccccc23)o1` (stereo not shown) [Compound 618]: 251 to 252 °C; `Cc1ccc(C(=O)C2=C(O)C(=O)N(c3nc4c(Cl)cccc4s3)C2c2cccc3ccccc23)o1` (stereo not shown) [Compound 619]: 249 to 250 °C.
Regarding `Cc1ccc(C(=O)C2=C(O)C(=O)N(c3nc4ccc(Cl)cc4s3)C2c2ccc(C#N)cc2)o1` (stereo not shown) [Compound 620], the melting point lay within 259 to 260 °C.
`Cc1ccc(C(=O)C2=C(O)C(=O)N(c3nc4ccc(F)cc4s3)C2c2ccc(C#N)cc2)o1` (stereo not shown) [Compound 621]: the melting point is 255 to 256 °C.
As for `Cc1ccc(C(=O)C2=C(O)C(=O)N(c3nc4c(Cl)cccc4s3)C2c2ccc(C#N)cc2)o1` (stereo not shown) [Compound 622], the figure is 273 to 274 °C; as for `Cc1ccc(C(=O)C2=C(O)C(=O)N(c3nc4ccc(Cl)cc4s3)C2c2cccc(F)c2F)o1` (stereo not shown) [Compound 623], 253 to 254 °C; as for `Cc1ccc(C(=O)C2=C(O)C(=O)N(c3nc4ccc(F)cc4s3)C2c2cccc(F)c2F)o1` (stereo not shown) [Compound 624], 239 to 240 °C.
Next, `Cc1ccc(C(=O)C2=C(O)C(=O)N(c3nc4c(Cl)cccc4s3)C2c2cccc(F)c2F)o1` (stereo not shown) [Compound 625]: 274 to 275 °C.
The molecule `Cc1ccc(C(=O)C2=C(O)C(=O)N(c3nc4ccc(Cl)cc4s3)C2c2ccccc2C)o1` (stereo not shown) [Compound 626] came in with a melting point of 254 to 256 °C.
As for `Cc1ccc(C(=O)C2=C(O)C(=O)N(c3nc4ccc(F)cc4s3)C2c2ccccc2C)o1` (stereo not shown) [Compound 627], the figure is 214 to 215 °C; as for `Cc1ccc(C(=O)C2=C(O)C(=O)N(c3nc4c(Cl)cccc4s3)C2c2ccccc2C)o1` (stereo not shown) [Compound 628], 244 to 245 °C.
